The target in assay [1] is T1, opossum alpha-2C adrenergic receptor (Didelphis virginiana, UniProt P35405).
T1 sequence (P35405 1-469): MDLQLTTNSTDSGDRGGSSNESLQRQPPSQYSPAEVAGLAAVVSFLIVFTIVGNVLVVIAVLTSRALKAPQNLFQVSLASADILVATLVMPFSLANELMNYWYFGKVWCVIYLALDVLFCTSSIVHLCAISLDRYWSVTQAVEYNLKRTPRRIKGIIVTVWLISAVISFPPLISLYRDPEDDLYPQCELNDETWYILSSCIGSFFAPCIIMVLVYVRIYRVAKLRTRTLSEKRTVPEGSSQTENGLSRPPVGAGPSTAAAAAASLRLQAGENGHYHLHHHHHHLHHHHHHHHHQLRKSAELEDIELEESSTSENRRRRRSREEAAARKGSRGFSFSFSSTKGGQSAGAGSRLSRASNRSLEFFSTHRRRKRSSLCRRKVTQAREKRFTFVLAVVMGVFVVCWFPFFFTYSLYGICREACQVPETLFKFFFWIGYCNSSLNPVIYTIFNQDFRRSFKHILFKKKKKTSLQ
Kind of assay: [3H]rauwolscine saturation binding, CHO membranes, filtration.

The target in assay [2] is T2, opossum alpha-2C adrenergic receptor (Didelphis virginiana, UniProt P35405, S309A/S310A/S312A/T311V). Kind of assay: biochemical.
Assay [3] has as its target opossum alpha-2C adrenergic receptor (Didelphis virginiana, UniProt P35405, S312A/T311V). Put plainly: biochemical.
Assay [4] deals with T2, opossum alpha-2C adrenergic receptor. Put plainly: biochemical. This is another data set of the same source.

Our source for the Kd and Ki values is paper PMC103669 (BMC Pharmacology, 2002).

T2 sequence (P35405 whole entry S309A/S310A/T311V/S312A): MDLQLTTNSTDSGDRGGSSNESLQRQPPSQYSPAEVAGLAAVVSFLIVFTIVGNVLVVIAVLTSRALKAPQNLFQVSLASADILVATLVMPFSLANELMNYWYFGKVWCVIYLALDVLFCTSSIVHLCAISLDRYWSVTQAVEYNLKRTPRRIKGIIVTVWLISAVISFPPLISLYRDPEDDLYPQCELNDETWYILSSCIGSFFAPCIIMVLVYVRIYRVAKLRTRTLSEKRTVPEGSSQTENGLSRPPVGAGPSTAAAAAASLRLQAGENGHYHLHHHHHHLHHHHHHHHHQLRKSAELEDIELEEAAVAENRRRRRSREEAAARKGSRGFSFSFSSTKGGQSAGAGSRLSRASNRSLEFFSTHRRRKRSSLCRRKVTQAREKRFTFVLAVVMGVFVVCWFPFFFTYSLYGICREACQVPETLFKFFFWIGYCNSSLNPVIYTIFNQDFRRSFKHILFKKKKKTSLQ
Chain of opossum alpha-2C adrenergic receptor (Didelphis virginiana, UniProt P35405, S312A/T311V) (P35405 whole entry T311V/S312A): as the sequence (P35405 whole entry S309A/S310A/T311V/S312A) above, with A309S, A310S counted along it

Consider `COC(=O)[C@H]1[C@H]2C[C@H]3c4[nH]c5ccccc5c4CCN3C[C@H]2CC[C@@H]1O` [[^3H]rauwolscine], for which the Kd (as a rule, the constant that tells how readily two partners part at equilibrium) in assay [1] came to 0.113 ± 0.008 nM; in assay [2] it was 0.118 ± 0.012 nM; in assay [3] it was 0.105 ± 0.005 nM.

For the compound `NC[C@H](O)c1ccc(O)c(O)c1` [norepinephrine], in assay [4], the affinity corresponds to a Ki of 71 ± 5 nM.
